The record followed here is ChEMBL document CHEMBL1121607, “A novel opioid receptor site directed alkylating agent with irreversible narcotic antagonistic and reversible agonistic activities” (J Med Chem, 1980).

Each structure is given as a SMILES string.

The term IC50 denotes the point on the concentration scale where inhibition reaches its midpoint. High values mean weaker potency, low ones greater potency.

The species entered for the assay is Cavia porcellus. Description: Tested for potent reversible agonist activity on electrically stimulated guinea pig ileal longitudinal muscle preparation. Format: functional, organism-based. Particulars: Muscle tissue.
Consider `COC(=O)/C=C/C(=O)N[C@@H]1CC[C@@]2(O)[C@H]3Cc4ccc(O)c5c4[C@@]2(CCN3CC2CC2)[C@H]1O5`, for which the IC50 is 4.8 nM.

For the compound `COC(=O)/C=C/C(=O)N[C@@H]1CC[C@@]2(O)C3Cc4ccc(O)c5c4C2(CCN3C)[C@H]1O5` (stereo partly drawn), the IC50 was 27 nM.

`O=C1CC[C@@]2(O)[C@H]3Cc4ccc(O)c5c4[C@@]2(CCN3CC2CC2)[C@H]1O5` [NALTREXONE] showed an IC50 of 50 nM.
